Assay: mn = molality of the nth substance listed, in mol/kg
Details: 101 kPa, Liquid; for speed of sound: Sing-around technique in a fixed-path interferometer; for mass density: Vibrating tube method

CC(=O)[O-].CCCCn1cc[n+](C)c1 [1-butyl-3-methylimidazolium acetate] + O
Details	mass density, 288.15 K [kg/m3]	mass density, 293.15 K [kg/m3]	mass density, 298.15 K [kg/m3]	mass density, 303.15 K [kg/m3]	mass density, 308.15 K [kg/m3]	speed of sound, 288.15 K [m/s]	speed of sound, 293.15 K [m/s]	speed of sound, 298.15 K [m/s]	speed of sound, 303.15 K [m/s]	speed of sound, 308.15 K [m/s]
m1 = 0.0534	999.93	999	997.824	996.406	994.772	1476.3	1492	1505.6	1517.5	1527.3
m1 = 0.104	1000.71	999.755	998.548	997.105	995.451	1485.4	1500.6	1513.6	1525.2	1534.3
m1 = 0.1535	1001.45	1000.47	999.237	997.775	996.101	1494.2	1508.8	1521.3	1532.3	1541
m1 = 0.209	1002.31	1001.29	1000.03	998.535	996.836	1504	1517.9	1529.8	1540	1548.3
m1 = 0.2498	1002.95	1001.91	1000.62	999.11	997.391	1511	1524.4	1535.9	1545.7	1553.8
m1 = 0.2997	1003.66	1002.59	1001.27	999.737	997.998	1519.5	1532	1543	1552.5	1560.3
m1 = 0.35	1004.51	1003.4	1002.05	1000.49	998.725	1528.1	1540	1550	1559	1566.8
m1 = 0.4035	1005.33	1004.19	1002.81	1001.22	999.427	1536.9	1548	1557.6	1566	1573.3
m1 = 0.457	1006.2	1005.02	1003.61	1001.98	1000.17	1545.8	1556	1564.8	1572.9	1579.9
m1 = 0.5036	1006.93	1005.72	1004.28	1002.63	1000.79	1553.4	1562.8	1571	1578.5	1585.6
